Data taken from patent US20120071539A1, “COMPOUNDS AND METHODS FOR MODULATING THE SILENCING OF A POLYNUCLEOTIDE OF INTEREST” (Emory University, priority 2006, published 2012).
Where “and” joins values, the source holds several entries; their conditions need not be identical. Equal entries are not always repeated. Entries after “also recorded” stand apart in the source; their conditions may differ.

Key:
RNAi-293-EGFP/RFP cells = assay: dose-response of GFP/RFP signal ratio in RNAi-293-EGFP/RFP cells; assay type: cell-based; conditions: at 5 μM; 48 hours; versus Enoxacin 50 μM and 100 μM
Description: FIGS. 11A-11D show drug dose-responses for representative metal/Fe chelators. RNAi-293-EGFP/RFP cells were treated with each compound for 48 hours and the GFP/RFP signal ratio was plotted for relative RNAi-enhancing activity (%) using E50 (Enoxacin at 50 μM) as 100% activity.
An additional chemical library screen was performed to identify enhancers and suppressors of RNAi activity. In this screen, RNAi-293-EGFP cells were treated with compounds from a chemical library and endogenous RNAi activity was measured by GFP readout. Four particular compounds were identified in this screen. Further, all four compounds identified in this screen have metal/Fe chelating ability.
These four compounds were further tested by obtaining a drug dose-response curve for each compound at a wide range of concentrations in RNAi-293-EGFP/RFP. After 48 hours, GFP signals were measured by SpectraMax M2^e (Molecular Devices Corporation, Sunnyvale, Calif.). The GFP signals were then normalized over RFP signals to account for variability of cell numbers among wells and then plotted for relative RNAi-enhancing activity, which is set to 100% for a known RNAi-enhancing small molecule, e.g., Enoxacin at 50 μM.

tumor cell models = conditions: cited from earlier work
bladder cancer cells = conditions: cited from earlier work
EGFP, 293-EGFP cells = assay: plate-reader chemical library screen, GFP signal in control EGFP cells; assay type: cell-based, human; conditions: GFP signal; 50 mM RNAi-E
Description: (§1) The presently disclosed chemical library also was screened using a plate reader to quantify the GFP signal intensity. The following screens were conducted: (1) repeating chemical screen using plate reader to quantify the GFP signal (50 mM each drug); (2) treating cells with 50 mM RNAi-I (30 mM each additional drug); and treating cells with […] (30 mM each additional drug).
(§2) For each screen, two types of cells were used: Clone#3 and EGFP. Clone#3 cells are 293-EGFP-siGFP and could be used to identify the modulators of the RNAi pathway. EGFP cells are 293-EGFP only and were used as a control to eliminate the compounds that could kill the cells or interfere GFP signals that are not related to RNAi pathway. The results for each screen are summarized in Table 2 and Table 3, respectively.
(§3) In these three screens, compounds were identified that could either enhance or inhibit RNAi activity in Clone#3, but had no effect on EGFP cells, which would indicate that these compounds might specifically work on RNAi pathway. The modulation of RNAi activity by these compounds was calculated as the percentage of GFP signal to Clone#3 control cells.

miR-30a-3p = assay: miRNA sensor Luc-T30 dual luciferase assay; assay type: cell-based; conditions: endogenously expressed miR-30; FIG. 6, FIG. 7
From the text: (A) Design of a siRNA duplex against miR-30a precursor (siRNA-p) and a control siRNA duplex (siRNA-c). The miR-30a precursor is provided as SEQ ID NO:1. The siRNA target region is represented by nucleotides 21-40 of SEQ ID NO:1. The siRNA-p is provided as SEQ ID NO:2 and the siRNA-c is provided as SEQ ID NO:3. The double stranded siRNA is shown on the bottom and predicted pairing between one siRNA strand (blue) and the precursor target (green).
In FIG. 6, top left panel, the blue arrowheads in Luc-T30 indicate artificial target sequence against miR-30a-3p. Luc-AT30 has an artificial sequence complementary to that in Luc-T30. […] Relative luciferase activity was calculated by dividing the reporter (Firefly) luciferase activity with co-transfected Renilla luciferase activity. Luciferase activity was decreased by transfecting Luc-T30 in HepG2 (orange bars) without changes in the amount of its mRNA (blue bars). Error bars represent the standard deviation (SD) of three triplicate experiments. […] Error bars represent the standard deviation (SD) from three triplicate experiments. **P=0.004; *****P=0.00001.
This reporter contains the target sequence of miR-30. In the miR-30 system, the endogenously expressed miR-30 was used and, in this cell line, miR-30 has been processed completely. Thus, the addition of enoxacin had no effect.

[1] = tested on: shRNA against Luciferase mRNA; assay: GL-3 luciferase reporter in cells expressing shRNA against luciferase; assay type: cell-based; conditions: FIG. 5
From the text: In this example, a luciferase reporter construct GL-3 was transfected into the cells expressing shRNA against Luciferase mRNA.

[2] = tested on: siRNA-mediated mRNA degradation; assay: cell-based reporter screen: human 293 cells stably expressing GFP plus siRNA hairpin against GFP; conditions: pilot screen of The Spectrum Collection; FIG. 3, FIG. 4
Description: FIG. 2 discloses one embodiment of the cell-based reporter system of the invention. In this example, a human 293-cell line stably expressing a reporter gene, GFP, was used. This cell line was further transfected with a construct that expresses siRNA hairpin against GFP, which can decrease the level of GFP expression. Individual clones were isolated with greatly (although not completely) reduced GFP expression.
Using the above-identified clones, a screen was performed using The Spectrum Collection (MicroSource Discovery Systems, Inc., Gaylordsville, Conn., United States of America), which contains 2000 biologically active and structurally diverse compounds from libraries of known drugs, experimental bioactives, and pure natural products. For example, in one embodiment, a pilot screen of this library identified one inhibitor and one enhancer of siRNA-mediated mRNA degradation.
To identify the chemical compounds that modulate the siRNA and miRNA pathway, a screening strategy was used. A human 293-cell line stably expressing a reporter gene, GFP, was used. This cell line was further transfected with a construct that expresses siRNA hairpin against GFP, which could knock down the expression of GFP. […] Using these clones, a screen was performed using The Spectrum Collection, which contains 2000 biologically active and structurally diverse compounds from libraries of known drugs, experimental bioactives, and pure natural products.
Human 293 cells stably expressing a reporter gene, GFP, were further transfected with a construct that expresses an siRNA hairpin against GFP, which results in the knock-down of the expression of GFP. Transfected cells containing the siRNA suppressed GPF expression were split and then treated with an effective amount of enoxacin (FIG. 4, second panel) and were grown for a period of 24-48 hours.

[3] = tested on: Clone#3, 293-EGFP-siGFP cells; assay: plate-reader chemical library screen, GFP signal in Clone#3 cells; assay type: cell-based, human; conditions: 50 mM RNAi-E alone
From the text: Further, in some embodiments, additional screens using the same library can be performed to identify other modulators of the siRNA and the miRNA pathways. In some embodiments, instead of examining the GFP signal visually under a microscope, the GFP signal can be quantified using an automatic plate reader. In such embodiments, two additional rounds of screening can be performed. In the first round of screening, the clones can be treated with compounds from a library, e.g., The Spectrum Collection, alone and the GFP level can be quantified after a period of time, e.g., 48 hours. In the second round of screening, the clones can be treated with compounds from a library, e.g., The Spectrum Collection, in the presence of 50 μM RNAi-E, i.e., enoxacin. This assay enables compounds that can modulate the activity of RNAi-E to be identified.
as §1, §2, §3

miR-125a = assay: Lin28 3'-UTR luciferase reporter in cells expressing miR-125a; assay type: cell-based
From the text: Referring now to FIG. 8, the 3′-UTR of Lin28 mRNA, a target mRNA of miR-125a, was inserted into the 3′ end of luciferase reporter gene. Lin28-Del is the construct without the target sequence of miR-125a. Lin28 or Lin28-Del was transfected into cells expressing miR-125a. Although RNAi-E had no effect on Lin28-Del, the translation of Lin28 was suppressed by the expression of miR-125a.

## O=C(N/N=C/c1c(O)ccc2ccccc12)c1ccncc1 [compound 311, 2-hydroxy-1-naphthylaldehyde isonicotinoyl hydrazone]
RNAi-293-EGFP/RFP cells
  RNAi-enhancing activity relative to Enoxacin: more effective than Enoxacin
Tumor cell models
  anti-proliferative activity: anti-proliferative activity; also recorded: anti-proliferation activity

## c1ccc(CNC2CC(NCc3ccccn3)CC(NCc3ccccn3)C2)nc1 (centres unmarked) [Tachpyridine, tachpyridine]
Bladder cancer cells
  ferritin synthesis: inhibit
  proliferation of bladder cancer cells in culture: inhibit
Tumor cell models
  anti-proliferative activity: anti-proliferative activity

## CCn1cc(C(=O)O)c(=O)c2cc(F)c(N3CCNCC3)nc21 [enoxacin]
EGFP, 293-EGFP cells
  EGFP, 293-EGFP cells RNAi-E alone: 177574932 and 1.78E+08 and 229622488 and 212666320 and 2.13E+08 and 138649048
miR-30a-3p
  miRNA-mediated translational suppression of Luc-T30 reporter: no effect
[1]
  knock-down efficiency of shRNA against luciferase mRNA: increased the knock-down efficiency
[2]
  siRNA-mediated mRNA degradation and gene knock-down: enhance siRNA-mediated mRNA degradation and gene knock-down
[3]
  Clone#3, 293-EGFP-siGFP cells GFP signal intensity with RNAi-E: 20289248 and 16615771 and 18695953 and 20015152
miR-125a; Lin28 construct, FIG. 8
  suppression of the translation of Lin28 by miR-125a: further enhanced this suppression
miR-125a; construct without the target sequence of miR-125a
  effect on Lin28-Del: no effect

## siRNA-c: control siRNA duplex, SEQ ID NO:3 (UGGUAGCAGUCAUGGCACATT; chemistry not given here)
miR-30a-3p
  miRNA-mediated translational suppression of Luc-T30 reporter: no effect

## siRNA-p: siRNA duplex against miR-30a precursor, SEQ ID NO:2 (UGGAAGCUGUGAAGCCACATT; chemistry not given here)
miR-30a-3p
  miRNA-mediated translational suppression of Luc-T30 reporter: reversed the translational suppression
